Laboratory results taken from patent US20200024278A1, “COMPOSITION COMPRISING ANTIBIOTIC COMPOUND AND AN HETEROCYCLIC COMPOUND AND THEIR USE IN PREVENTING OR TREATING BACTERIAL INFECTIONS” (MUTABILIS, priority 2016, published 2020).

Columns and labels:
PAE 27853 = test: MIC, broth microdilution (CLSI), substance alone or ATB combined with compound at 4 or 8 μg/mL; assay type: cell-based, P. aeruginosa; settings: Pseudomonas aeruginosa, substance alone
How it was run: (§1)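 Each strain received 5·10^5 CFU/mL of log-phase cells in ca-MHB over DMSO-spotted compound or compound-antibiotic combinations. After 16-20 h at 35° C, growth was scored visually.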

ABA 107292 = test: as above; assay type: cell-based, A. baumannii; settings: Acinetobacter baumannii, substance alone, read-out: MIC
How it was run: as §1

ABA UFR151 = test: as above; assay type: cell-based, A. baumannii; settings: Acinetobacter baumannii, substance alone, read-out: MIC
How it was run: as §1

ABA UFR152 = test: as above; assay type: cell-based, A. baumannii; settings: Acinetobacter baumannii, substance alone, read-out: MIC
How it was run: as §1

ABA UFR153 = test: as above; assay type: cell-based, A. baumannii; settings: Acinetobacter baumannii, substance alone, read-out: MIC
How it was run: as §1

ABA UFR154 = test: as above; assay type: cell-based, A. baumannii; settings: Acinetobacter baumannii, substance alone, read-out: MIC
How it was run: as §1

ABA UFR155 = test: as above; assay type: cell-based, A. baumannii; settings: Acinetobacter baumannii, substance alone, read-out: MIC
How it was run: as §1

ABA UFR156 = test: as above; assay type: cell-based, A. baumannii; settings: Acinetobacter baumannii, substance alone, read-out: MIC
How it was run: as §1

ABA UFR157 = test: as above; assay type: cell-based, A. baumannii; settings: Acinetobacter baumannii, substance alone, read-out: MIC
How it was run: as §1

ABA UFR158 = test: as above; assay type: cell-based, A. baumannii; settings: Acinetobacter baumannii, substance alone, read-out: MIC
How it was run: as §1

ABA UFR160 = test: as above; assay type: cell-based, A. baumannii; settings: Acinetobacter baumannii, substance alone, read-out: MIC
How it was run: as §1

ABA UFR161 = test: as above; assay type: cell-based, A. baumannii; settings: Acinetobacter baumannii, substance alone, read-out: MIC
How it was run: as §1

PAE UFR48 = test: Fractional Inhibitory Concentration Index, checkerboard assay; assay type: cell-based, P. aeruginosa
How it was run: (§2)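 Two-agent checkerboards of 2-fold dilutions in ca-MHB were inoculated at 5.10^5 CFU/mL and incubated 18 h at 35 °C in air, in duplicate; fosfomycin wells also held 25 μg/ml glucose-6-phosphate. FICI calculated as the sum of combination/alone MIC ratios for each drug.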

PAE UFR90 = test: as above; assay type: cell-based, P. aeruginosa
How it was run: as §2

KPN UFR68 = test: as above; assay type: cell-based, K. pneumoniae
How it was run: as §2

ECL P99 = test: as above; assay type: cell-based, E. cloacae
How it was run: as §2

ECO 190317 = test: as above; assay type: cell-based, E. coli
How it was run: as §2

Structure (SMILES)	MIC (ABA 107292) [µg/mL]	MIC (ABA UFR151) [µg/mL]	MIC (ABA UFR152) [µg/mL]	MIC (ABA UFR153) [µg/mL]	MIC (ABA UFR154) [µg/mL]	MIC (ABA UFR155) [µg/mL]	MIC (ABA UFR156) [µg/mL]	MIC (ABA UFR157) [µg/mL]	MIC (ABA UFR158) [µg/mL]	MIC (ABA UFR160) [µg/mL]	MIC (ABA UFR161) [µg/mL]	FIC index min (PAE UFR48; compound +ATM)	FIC index min (PAE UFR48; compound +FEP)	FIC index min (PAE UFR48; compound +FOS)	FIC index min (PAE UFR48; compound +MEM)	FIC index min (PAE UFR48; compound +PIP)	FIC index min (PAE UFR90; compound +ATM)	FIC index min (PAE UFR90; compound +FEP)	FIC index min (PAE UFR90; compound +FOS)	FIC index min (PAE UFR90; compound +MEM)	also measured
NC[C@H]1C=C(c2cnco2)[C@@H]2CN1C(=O)N2OS(=O)(=O)[O-].O=C(O)C(F)(F)F.[Na+] (relative stereo) [Example 1, sodium and 2,2,2-trifluoroacetate [trans-2-(azaniumylmethyl)-4-oxazol-5-yl-7-oxo-1,6-diazabicyclo[3.2.1]oct-3-en-6-yl] sulfate]	> 32	> 32	> 32	> 32	> 32	> 32	> 32	> 32	> 32	> 32	> 32	0.25	0.53	0.62	0.27	0.27	0.54	0.50	1.0	0.75	MIC (PAE 27853): 1 µg/mL; FIC index min (PAE UFR90; compound +PIP): 0.88; FIC index min (KPN UFR68; compound +ATM): ≤0.023; FIC index min (KPN UFR68; compound +FEP): ≤0.0088; FIC index min (KPN UFR68; compound +FOS): ≤0.126; FIC index min (KPN UFR68; compound +MEM): ≤0.0098; FIC index min (KPN UFR68; compound +PIP): ≤0.012; FIC index min (ECL P99; compound +ATM): 0.50; FIC index min (ECL P99; compound +FEP): 0.47; FIC index min (ECL P99; compound +FOS): ≤0.3125; FIC index min (ECL P99; compound +MEM): 0.56; FIC index min (ECL P99; compound +PIP): 0.50; FIC index min (ECO 190317; compound +ATM): 0.51; FIC index min (ECO 190317; compound +FEP): 0.49; FIC index min (ECO 190317; compound +FOS): 0.37; FIC index min (ECO 190317; compound +MEM): 0.63; FIC index min (ECO 190317; compound +PIP): ≤0.38
NCC[C@H](O)C(=O)N[C@@H]1C[C@H](N)[C@@H](O[C@H]2O[C@H](CN)[C@@H](O)[C@H](O)[C@H]2O)[C@H](O)[C@H]1O[C@H]1O[C@H](CO)[C@@H](O)[C@H](N)[C@H]1O [AN, Amikacin, reference compound]																					MIC (PAE 27853): 2 µg/mL
NCCON=C1C[C@@H](C(N)=O)N2C[C@@H]1N(OS(=O)(=O)[O-])C2=O.[Na+] [Example 2, sodium and 2,2,2-trifluoroacetate [(2S,5S)-4-(2-ammonium-ethoxyimino)-2-carbamoyl-7-oxo-1,6-diazabicyclo[3.2.1]octan-6-yl] sulfate]	> 32	> 32	> 32	> 32	> 32	> 32	> 32	> 32	> 32	> 32	> 32	0.09	0.63	0.50	0.8	0.31	≤0.22	≤0.28	≤0.63	≤0.38	FIC index min (PAE UFR90; compound +PIP): ≤0.15; FIC index min (KPN UFR68; compound +ATM): 0.05; FIC index min (KPN UFR68; compound +FEP): ≤0.0098; FIC index min (KPN UFR68; compound +FOS): 0.25; FIC index min (KPN UFR68; compound +MEM): 0.03; FIC index min (KPN UFR68; compound +PIP): 0.09; FIC index min (ECL P99; compound +ATM): 0.50; FIC index min (ECL P99; compound +FEP): 0.14; FIC index min (ECL P99; compound +FOS): ≤0.14; FIC index min (ECL P99; compound +MEM): 0.50; FIC index min (ECL P99; compound +PIP): 0.14; FIC index min (ECO 190317; compound +ATM): 0.08; FIC index min (ECO 190317; compound +FEP): ≤0.06; FIC index min (ECO 190317; compound +FOS): 0.56; FIC index min (ECO 190317; compound +MEM): 0.50; FIC index min (ECO 190317; compound +PIP): ≤0.25
O=C1N2CC(c3ncco3)=C[C@H](C2)N1OS(=O)(=O)[O-].[Na+] [Example 9, sodium [(5R)-3-(oxazol-2-yl)-7-oxo-1,6-diazabicyclo[3.2.1]oct-3-en-6-yl] sulfate]	> 32	> 32	> 32	> 32	> 32	> 32	> 32	> 32	> 32	> 32	> 32	0.14	0.50	1.0	0.8	0.32	≤0.30	≤0.27	≤0.52	≤0.53	FIC index min (PAE UFR90; compound +PIP): ≤0.23; FIC index min (KPN UFR68; compound +ATM): ≤0.27; FIC index min (KPN UFR68; compound +FEP): ≤0.05; FIC index min (KPN UFR68; compound +FOS): 0.50; FIC index min (KPN UFR68; compound +MEM): 0.15; FIC index min (KPN UFR68; compound +PIP): ≤0.27; FIC index min (ECL P99; compound +ATM): 0.53; FIC index min (ECL P99; compound +FEP): 0.23; FIC index min (ECL P99; compound +FOS): ≤0.19; FIC index min (ECL P99; compound +MEM): 0.88; FIC index min (ECL P99; compound +PIP): 0.20; FIC index min (ECO 190317; compound +ATM): 0.20; FIC index min (ECO 190317; compound +FEP): ≤0.07; FIC index min (ECO 190317; compound +FOS): 0.69; FIC index min (ECO 190317; compound +MEM): 0.58; FIC index min (ECO 190317; compound +PIP): ≤0.21
